As a reminder, the IC50 is the midpoint of a concentration-inhibition curve.

Chain of protein target (Q06187 2-659): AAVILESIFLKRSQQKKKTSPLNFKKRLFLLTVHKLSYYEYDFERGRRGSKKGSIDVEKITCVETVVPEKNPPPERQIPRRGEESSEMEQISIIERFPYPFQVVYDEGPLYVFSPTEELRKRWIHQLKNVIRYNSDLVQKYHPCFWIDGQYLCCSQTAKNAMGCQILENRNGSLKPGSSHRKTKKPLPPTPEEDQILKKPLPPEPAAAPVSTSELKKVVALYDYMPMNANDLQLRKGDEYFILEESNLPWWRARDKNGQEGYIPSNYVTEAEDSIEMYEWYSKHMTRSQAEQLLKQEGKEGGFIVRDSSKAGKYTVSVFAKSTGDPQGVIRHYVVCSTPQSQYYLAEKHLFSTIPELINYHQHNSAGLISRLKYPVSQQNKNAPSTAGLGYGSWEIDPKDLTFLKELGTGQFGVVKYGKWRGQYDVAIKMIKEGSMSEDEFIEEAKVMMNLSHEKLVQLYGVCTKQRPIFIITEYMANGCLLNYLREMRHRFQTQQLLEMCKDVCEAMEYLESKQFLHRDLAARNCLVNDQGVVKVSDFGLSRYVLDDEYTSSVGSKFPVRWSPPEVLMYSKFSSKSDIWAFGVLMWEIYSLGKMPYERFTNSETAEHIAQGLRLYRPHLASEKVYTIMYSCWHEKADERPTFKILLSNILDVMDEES

The target in one assay is human recombinant Btk (Homo sapiens, UniProt Q06187). As to the kind of experiment: Btk enzymatic activity assay (Caliper-based kinase assay). It counts as biochemical. The note with it: human recombinant Btk 2 nM, ATP 40 μM, room temperature 3 h, compounds of Cpd Table 1.
Chain of human recombinant Btk (Q06187 whole entry): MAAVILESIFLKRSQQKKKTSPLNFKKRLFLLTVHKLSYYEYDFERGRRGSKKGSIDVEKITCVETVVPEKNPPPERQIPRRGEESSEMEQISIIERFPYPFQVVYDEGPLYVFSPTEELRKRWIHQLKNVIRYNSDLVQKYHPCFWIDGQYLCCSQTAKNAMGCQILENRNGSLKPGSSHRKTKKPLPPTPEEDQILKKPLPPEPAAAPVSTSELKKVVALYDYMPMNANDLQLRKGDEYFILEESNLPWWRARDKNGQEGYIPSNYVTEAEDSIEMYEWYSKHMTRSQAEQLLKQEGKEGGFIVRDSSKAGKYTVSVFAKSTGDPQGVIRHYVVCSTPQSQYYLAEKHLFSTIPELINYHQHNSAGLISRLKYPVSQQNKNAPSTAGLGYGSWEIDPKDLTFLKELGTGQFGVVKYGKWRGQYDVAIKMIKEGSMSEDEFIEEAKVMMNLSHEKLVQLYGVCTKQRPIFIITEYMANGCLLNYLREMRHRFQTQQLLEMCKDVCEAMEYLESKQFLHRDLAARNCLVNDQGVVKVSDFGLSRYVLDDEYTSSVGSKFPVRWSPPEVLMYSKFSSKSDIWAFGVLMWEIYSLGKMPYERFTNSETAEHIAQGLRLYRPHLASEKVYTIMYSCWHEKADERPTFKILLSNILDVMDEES
Procedure: A Caliper-based kinase assay (Caliper Life Sciences, Hopkinton, Mass.) was used to measure inhibition of Btk kinase activity of a compound of Formula (IA), (I′) or (I). […] The reaction was then terminated with EDTA, final concentration 20 mM and the phosphorylated reaction product was quantified on a Caliper Desktop Profiler (Caliper LabChip 3000). […] This value is presented as the IC50.
As for `COc1cc(-c2nn(C3CCCN(C(=O)C(C#N)=CC4CC4)C3)c3ncnc(N)c23)ccc1Oc1ccc(Cl)c(Cl)c1` (stereo not drawn) [compound 4], the IC50 came to 61 nM.

Turning to `COc1cc(-c2nn(C3CCN(C(=O)C(C#N)=CC(C)(C)C)CC3)c3ncnc(N)c23)ccc1Oc1ccc(Cl)c(Cl)c1` [compound 9], the IC50 came to 980 nM.

Consider `CC(C)(C)C=C(C#N)C(=O)N1CCCC(n2nc(-c3ccc(Oc4ccccc4)cc3)c3c(N)ncnc32)C1` (stereo not drawn) [Example 7, 2-(3-(4-amino-3-(4-phenoxyphenyl)-1H-pyrazolo[3,4-d]pyrimidin-1-yl)piperidine-1-carbonyl)-4,4-dimethylpent-2-enenitrile], for which the half-inhibitory concentration (IC50) amounted to 1.3 nM.

On to `N#CC(=CC1CC1)C(=O)NC1CCC(n2nc(-c3ccc(Oc4ccccc4)cc3)c3c(N)ncnc32)CC1` (stereo not drawn) [compound 11], for which the IC50 was 14 nM.

`CC(Cn1nc(-c2ccc(Oc3ccccc3)cc2F)c2c(N)ncnc21)NC(=O)C(C#N)=CC(C)(C)N` (stereo not drawn) [Example 195]: the IC50 came to 6 nM.

Take `COc1cc(-c2nn(C3CCN(C(=O)C(C#N)=CC4CC4)CC3)c3ncnc(N)c23)ccc1Oc1ccc(Cl)c(Cl)c1` [compound 6]: the IC50 stood at 365 nM.

Turning to `NC(=O)C(=CC1CC1)C(=O)N1CCC[C@@H](n2nc(-c3ccc(Oc4ccccc4F)cc3)c3c(N)ncnc32)C1` [Example 32A], the IC50 was 1.7 nM.

Staying with this assay, now noted: human recombinant Btk 2 nM, ATP 40 μM, room temperature 3 h, compounds of Cpd Table 2.
With `CC(C)(C)C=C(C#N)C(=O)NC1CCC(n2nc(-c3ccc(NC(=O)c4ccc(C(F)(F)F)cc4)cc3)c3c(N)ncnc32)CC1` (stereo not drawn) [Table 2-8, N-(4-(4-amino-1-((1r,4r)-4-(2-cyano-4,4-dimethylpent-2-enamido)cyclohexyl)-1H-pyrazolo[3,4-d]pyrimidin-3-yl)phenyl)-4-(trifluoromethyl)benzamide], the IC50 is above 1000 nM.

Take `CC(C)(C)C=C(C#N)C(=O)N1CCC(n2nc(-c3ccc(NC(=O)c4ccc(C(F)(F)F)cc4)cc3)c3c(N)ncnc32)CC1` [Table 2-6, N-(4-(4-amino-1-(1-(2-cyano-4,4-dimethylpent-2-enoyl)piperidin-4-yl)-1H-pyrazolo[3,4-d]pyrimidin-3-yl)phenyl)-4-(trifluoromethyl)benzamide]: the IC50 was above 1000 nM.

Regarding `N#CC(=CC1CC1)C(=O)N1CCCC(n2nc(-c3ccc(NC(=O)c4ccc(C(F)(F)F)cc4)cc3)c3c(N)ncnc32)C1` (stereo not drawn) [Table 2-1, N-(4-(4-amino-1-(1-(2-cyano-3-cyclopropylacryloyl)piperidin-3-yl)-1H-pyrazolo[3,4-d]pyrimidin-3-yl)phenyl)-4-(trifluoromethyl)benzamide], the IC50 was 62 nM.

For the molecule `CC(C)(C)C=C(C#N)C(=O)NC1CCC(n2nc(-c3ccc(NC(=O)c4ccc(C(F)(F)F)cc4)cc3)c3c(N)ncnc32)CC1` (stereo not drawn) [Table 2-10, N-(4-(4-amino-1-((1s,4s)-4-(2-cyano-4,4-dimethylpent-2-enamido)cyclohexyl)-1H-pyrazolo[3,4-d]pyrimidin-3-yl)phenyl)-4-(trifluoromethyl)benzamide], the IC50 is above 1000 nM.

For `N#CC(=CC1CC1)C(=O)N1CCC(n2nc(-c3ccc(NC(=O)c4ccc(C(F)(F)F)cc4)cc3)c3c(N)ncnc32)CC1` [Table 2-2, N-(4-(4-amino-1-(1-(2-cyano-3-cyclopropylacryloyl)piperidin-4-yl)-1H-pyrazolo[3,4-d]pyrimidin-3-yl)phenyl)-4-(trifluoromethyl)benzamide], the IC50 was above 1000 nM.

Turning to `CC(C)(C)C=C(C#N)C(=O)N1CCCC(n2nc(-c3ccc(NC(=O)c4ccc(C(F)(F)F)cc4)cc3)c3c(N)ncnc32)C1` (stereo not drawn) [Table 2-3, N-(4-(4-amino-1-(1-(2-cyano-4,4-dimethylpent-2-enoyl)piperidin-3-yl)-1H-pyrazolo[3,4-d]pyrimidin-3-yl)phenyl)-4-(trifluoromethyl)benzamide], the half-inhibitory concentration (IC50) worked out at 13 nM.

In the case of `CC(C)(C)C=C(C#N)C(=O)N1CCCC1Cn1nc(-c2ccc(NC(=O)c3ccc(C(F)(F)F)cc3)cc2)c2c(N)ncnc21` (stereo not drawn) [Table 2-5, N-(4-(4-amino-1-((1-(2-cyano-4,4-dimethylpent-2-enoyl)pyrrolidin-2-yl)methyl)-1H-pyrazolo[3,4-d]pyrimidin-3-yl)phenyl)-4-(trifluoromethyl)benzamide], the IC50 was determined as 180 nM.

Another assay addresses protein target (Homo sapiens, UniProt Q06187). As to the kind of experiment: Reversibility of binding (compound in solution before and after perturbation of the target, HPLC-MS/MS). The note with it: after 5 M guanidine hydrochloride denaturation and trypsin digestion. On the procedure: The following approach was developed to differentiate compounds that form irreversible bonds with their targets, such as acrylamide compounds, from compound that bind reversibly. […] The reactions were then treated with perturbations including both denaturation with 5 M guanidine hydrochloride and digestion with trypsin, disrupting proper folding of the target. […] The concentration of compound in solution was assessed both preceding and following perturbation using high performance liquid chromatography (HPLC) coupled to tandem mass spectrometry.
For `N#CC(=CC1CC1)C(=O)N1CCC[C@@H](n2cc(-c3ccc(Oc4ccccc4)cc3)c3c(N)ncnc32)C1` [Example 27, (R)-2-(3-(4-amino-5-(4-phenoxyphenyl)-7H-pyrrolo[2,3-d]pyrimidin-7-yl)piperidine-1-carbonyl)-3-cyclopropylacrylonitrile], the “compound in solution following perturbation of the target” value is on record as “returned to solution”.

The same assay, now with this note: after denaturation with 5 M guanidine hydrochloride and digestion with trypsin.
On to `N#CC(=CC1CC1)C(=O)N1CCC[C@@H](n2cc(-c3ccc(Oc4ccccc4)cc3)c3c(N)ncnc32)C1` [Example 27, (R)-2-(3-(4-amino-5-(4-phenoxyphenyl)-7H-pyrrolo[2,3-d]pyrimidin-7-yl)piperidine-1-carbonyl)-3-cyclopropylacrylonitrile], for which the “Compound in solution in the denatured or digested state?” value is “yes”.

The same assay, now with this note: before perturbation.
Consider `N#CC(=CC1CC1)C(=O)N1CCC[C@@H](n2cc(-c3ccc(Oc4ccccc4)cc3)c3c(N)ncnc32)C1` [Example 27, (R)-2-(3-(4-amino-5-(4-phenoxyphenyl)-7H-pyrrolo[2,3-d]pyrimidin-7-yl)piperidine-1-carbonyl)-3-cyclopropylacrylonitrile], for which the “depletion of compound from solution in the native (folded) state” value is recorded as “depleted”.

Still in this assay, the particulars now being: protein target at higher concentration than compound; before perturbation.
As to `N#CC(=CC1CC1)C(=O)N1CCC[C@@H](n2cc(-c3ccc(Oc4ccccc4)cc3)c3c(N)ncnc32)C1` [Example 27, (R)-2-(3-(4-amino-5-(4-phenoxyphenyl)-7H-pyrrolo[2,3-d]pyrimidin-7-yl)piperidine-1-carbonyl)-3-cyclopropylacrylonitrile], the “Compound in solution in the native state?” value is listed as “no”.

The record behind these values is patent publication US8962831B2, “Tyrosine kinase inhibitors” (Principia Biopharma Inc., priority 2011, dated 2015).
